Measurements taken from patent US11192849B2, “Compounds, compositions, and methods for modulating ferroptosis and treating excitotoxic disorders” (THE TRUSTEES OF COLUMBIA UNIVERSITY IN THE CITY OF NEW YORK, priority 2013, dated 2021).

Experiments:
[1] = tested on: HT-1080 cells; experiment: Effect of Fer-1 on the lethality of various compounds in HT-1080 cells; assay type: cell-based, human; conditions: resynthesized Fer-1 (0.5 μM)
Protocol: The comparative analysis of the lethal effects of various molecules was conducted as above for the inhibitors experiment with the following modifications. All lethal molecules were tested in a ten point, two-fold dilution series. Inhibitors were made in media at 1× final concentration. The growth media was removed from the plates, and 36 μL media+inhibitor (or DMSO) was added back to the plate+4 μL from the 10× lethal stock plate. Cell viability and modulatory effects (Me) were computed as above, to obtain the maximum deviation from BExp produced by each modulator across the different lethal small molecule concentrations.

[2] = tested on: HT-1080 cells; experiment: Mitochondrial ROS (MitoSOX) in HT-1080 cells; assay type: cell-based, human; conditions: rotenone 250 nM, 3 hr, Fer-1 1 μM
Protocol: 200,000 HT-1080 cells were seeded into 6-well dishes (Corning). The next day, cells were treated with +/−rotenone +/−ferrostatin-1 for 3 hours (for MitoSOX experiments) or +/−STS +/−ferrostatin-1 for 4 hours (for 10-N-nonylacridine orange [NAO] experiments), harvested by trypsinization and analyzed as follows. For the analysis of mitochondrial ROS, cells were incubated with 5 μM MitoSOX (Molecular Probes/Invitrogen) in HBSS for 10 minutes in the dark at 37° C. […] MitoSOX data were collected in the FL2 channel and NAO data was collected in the FL1 channel. Data are from three independent biological replicates of each experiment. Data were analyzed by one-way ANOVA with Bonferroni's post-hoc test.
A minimum of 10,000 cells were analyzed per condition.

[3] = tested on: ERK phosphorylation; experiment: ERK phosphorylation Western blot in HT-1080 cells; assay type: cell-based, human
Protocol: Cells were trypsinized, pelleted, and washed once in PBS. Cells were lysed for 20 minutes in buffer containing: 50 mM HEPES pH 7.4, 40 mM NaCl, 2 mM EDTA, 0.5% Triton X-100, 1.5 mM sodium orthovanadate, 50 mM NaF, 10 mM sodium pyrophosphate, 10 mM sodium ß-glycerophosphate, and protease inhibitor tablet (Roche, Nutley, N.J.). Unlysed cells and debris were pelleted for 10 minutes at 10,000 rpm in a benchtop microcentrifuge at 4° C., and the supernatant was removed and mixed with 5×SDS loading buffer. Samples were separated by SDS-polyacrylamide gel electrophoresis. Western transfer was performed using the iBlot system (Invitrogen). Membrane was blocked for 1 hour in Licor Odyssey Blocking Buffer (LI-COR) and incubated in primary antibody overnight at 4° C. Following three 5-minute washes in Tris-buffered saline (pH 7.4) with 1% Tween-20 (TBS-T), membrane was incubated with secondary antibodies for 45 minutes in the dark. The membrane was washed again in TBST for three 5-minute washes with protection from light and scanned using the Odyssey Imaging System (LI-COR). Antibodies used were as follows: rabbit anti-phospho p42/44 MAPK (Cell Signaling Technology, #9101) and rabbit anti-p42/44 MAPK (Cell Signaling Technology, #9102). The secondary antibody was IR dye 800CW goat anti-rabbit IgG (LI-COR).

[4] = tested on: mice, IRI of the cremaster muscle; experiment: In vivo microscopy on the postischemic cremaster muscle; set-up: species or system mouse
Protocol: The surgical preparation of the cremaster muscle was performed as originally described by Baez with minor modifications (Traykova-Brauch et al., 2008; Mulay et al., 2013). Mice were anesthetized using a ketamine/xylazine mixture (100 mg/kg ketamine and 10 mg/kg xylazine), administrated by i.p. injection. The left femoral artery was cannulated in a retrograde manner for administration of microspheres and drugs. The right cremaster muscle was exposed through a ventral incision of the scrotum. The muscle was opened ventrally in a relatively avascular zone, using careful electrocautery to stop any bleeding, and spread over the transparent pedestal of a custom-made microscopic stage. Epididymis and testicle were detached from the cremaster muscle and placed into the abdominal cavity. Throughout the procedure as well as after surgical preparation during in vivo microscopy, the muscle was superfused with warm-buffered saline.
The setup for in vivo microscopy was centered around equipment for stroboscopic fluorescence epiillumination microscopy. […] Microscopy images were obtained with Olympus water immersion lenses (20×/numerical aperture (N.A.) 0.5 and 10×/N.A. 0.3) and recorded with an analog black-and-white charge-coupled device (CCD) video camera (Cohu 4920; Cohu) and an analog video recorder (AG-7350-E; Panasonic). […] For measurement of centerline blood flow velocity, green fluorescent microspheres (2-μm diameter; Molecular Probes) were injected via the femoral artery catheter, and their passage through the vessels of interest was recorded using the FITC filter cube under appropriate stroboscopic illumination (exposure, 1 ms; cycle time, 10 ms; length of the electromagnetic wave, 488 nm), integrating video images for sufficient time (>80 ms) to allow for the recording of several images of the same bead on one frame. […]

[5] = In vitro stability study in mouse plasma; assay type: in vitro ADME
Protocol: The assay was conducted by incubating 1 μM of test compounds with Mouse Plasma (Strain […]) for a series of incubation times (0, 15, 30, 60, 120 minutes) at various temperatures (wet ice, room temperature, or 37° C.) with 5% CO2 and shaking (130 rpm). At each time point, the samples were quenched with 200 μL of stop solution containing an internal standard and kept on ice. The samples were analysed by LC-MS/MS.

In the case of `CCOC(=O)c1ccc(NC2CCCCC2)c(N)c1` [SRS8-28 (Fer-1), ethyl 3-amino-4-(cyclohexylamino)benzoate], the “specificity of death inhibition among lethal compounds” value [1] is reported as “specifically inhibited RSL-induced death, but not cell death induced by other oxidative lethal compounds and apoptosis-inducing agents”, the “accumulation of mitochondrial superoxide in response to rotenone” value [2] is reported as “did not prevent” and the ERK phosphorylation [3] is reported as “did not inhibit ERK phosphorylation”. The leukocyte adherence ([4]; 1 h and 2 h after onset of reperfusion) was “remains unchanged”, the leukocyte transmigration ([4]; ferrostatin-1 2 mg/kg i.p.) was “Significantly reduced” and the leukocyte rolling ([4]; within the first hour after reperfusion) was “is affected”. For the same compound, the “mouse plasma stability” value [5] was “poor plasma stability”.
